Results from patent US20120157500A1, “JAK INHIBITION BLOCKS RNA INTERFERENCE ASSOCIATED TOXICITIES” (priority 2009, published 2012).

Key:
[1] = molecular target: T1, IKK2 (Homo sapiens, UniProt O14920); conditions: Table 1, from former studies; cited from earlier work
T1 sequence (O14920 1-756): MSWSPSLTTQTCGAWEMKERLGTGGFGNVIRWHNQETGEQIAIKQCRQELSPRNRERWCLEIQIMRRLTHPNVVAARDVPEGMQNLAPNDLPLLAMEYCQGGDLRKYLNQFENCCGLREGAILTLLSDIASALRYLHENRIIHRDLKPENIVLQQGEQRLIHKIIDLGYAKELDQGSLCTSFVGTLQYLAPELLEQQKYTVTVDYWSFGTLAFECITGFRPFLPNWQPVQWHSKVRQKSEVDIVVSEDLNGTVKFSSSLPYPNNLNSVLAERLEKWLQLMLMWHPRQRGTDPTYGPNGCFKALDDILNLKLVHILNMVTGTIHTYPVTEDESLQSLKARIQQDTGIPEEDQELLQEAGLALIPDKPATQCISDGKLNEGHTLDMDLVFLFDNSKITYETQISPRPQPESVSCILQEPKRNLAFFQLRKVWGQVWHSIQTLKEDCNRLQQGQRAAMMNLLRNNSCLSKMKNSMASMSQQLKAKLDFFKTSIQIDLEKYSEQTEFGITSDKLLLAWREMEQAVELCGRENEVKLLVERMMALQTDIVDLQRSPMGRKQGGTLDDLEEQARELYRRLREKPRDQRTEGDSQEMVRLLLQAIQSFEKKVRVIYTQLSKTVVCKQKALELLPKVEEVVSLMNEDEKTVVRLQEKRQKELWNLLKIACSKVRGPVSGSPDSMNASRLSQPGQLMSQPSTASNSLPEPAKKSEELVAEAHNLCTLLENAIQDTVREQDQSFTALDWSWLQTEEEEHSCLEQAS

[2] = molecular target: T2, IKK1 (Homo sapiens, UniProt O15111); conditions: Table 1, from former studies; cited from earlier work
T2 sequence (O15111 1-745): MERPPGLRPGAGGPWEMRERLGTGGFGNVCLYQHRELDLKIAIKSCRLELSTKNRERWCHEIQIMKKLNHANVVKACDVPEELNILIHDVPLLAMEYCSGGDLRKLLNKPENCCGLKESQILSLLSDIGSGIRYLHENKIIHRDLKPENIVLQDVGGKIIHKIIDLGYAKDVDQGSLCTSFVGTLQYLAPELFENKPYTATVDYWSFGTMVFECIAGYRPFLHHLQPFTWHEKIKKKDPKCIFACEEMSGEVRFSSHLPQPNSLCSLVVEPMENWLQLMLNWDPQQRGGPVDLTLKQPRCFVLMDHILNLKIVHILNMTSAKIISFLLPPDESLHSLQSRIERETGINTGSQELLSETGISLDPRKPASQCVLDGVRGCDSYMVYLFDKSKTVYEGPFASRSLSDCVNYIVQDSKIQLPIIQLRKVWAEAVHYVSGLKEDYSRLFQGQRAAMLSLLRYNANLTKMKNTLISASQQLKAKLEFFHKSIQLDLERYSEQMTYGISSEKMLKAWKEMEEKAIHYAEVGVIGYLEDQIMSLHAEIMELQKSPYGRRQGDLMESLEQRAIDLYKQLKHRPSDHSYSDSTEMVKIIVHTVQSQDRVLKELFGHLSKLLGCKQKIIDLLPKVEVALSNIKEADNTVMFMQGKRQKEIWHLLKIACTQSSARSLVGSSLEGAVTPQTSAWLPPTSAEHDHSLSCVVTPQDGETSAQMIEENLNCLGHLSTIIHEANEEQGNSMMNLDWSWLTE

[3] = tested on: LF01-SSB-induced lethality and visible hematuria; assay: Suppression of LF01-SSB-induced lethality and visible hematuria by inhibitors; format: in vivo; conditions: rats; for Rescue effect: Death, +inhibitor/−inhibitor / Rescue effect: Red urine, +inhibitor/−inhibitor: inhibitor 1 hr prior to LF01-SSB 9 mg/kg IV, animals with inhibitor/without inhibitor; for Rescue effect: Death, +inhibitor/−inhibitor: deaths until 96 hr; for Rescue effect: Red urine, +inhibitor/−inhibitor: urine collected over 24 hr
Description: Since LF01-siRNA nanoparticles provoked lethality and multifactorial toxicities involving different systems in rats, this offers an in vivo model for pharmacologically probing the mechanism that triggers LF01-siRNA toxicities. We first evaluated the suppression of LF01-SSB-induced lethality and visible hematuria by anti-inflammation drugs and pathway-specific inhibitors of the innate immune system as shown in Table 1. […] Rats were pre-dosed with either a vehicle or one of these reagents using the dosing regimen listed in Table 1, followed by an IV dose of LF01-SSB at 9 mpk 1 hr later, and animals were monitored for lethality for 96 hr. In addition, urine was collected over the course of 24 hr for visual observation of hematuria.
Rats were dosed with PBS or one of these inhibitors 1 hr prior to IV administration of PBS or […] at 9 mg/kg. Urine samples were collected over a course of 24 hr for visual examination of hematuria (red urine). Animals were monitored for lethality until 96 hr post LF01-SSB dose. Unscheduled deaths and cases of visible hematuria in animals receiving LF01-SSB with or without inhibitor pretreatment were scored and presented.
(§1) Rat studies. All animal studies were conducted at AAALAC-accredited Merck Research laboratories' animal facility located at West Point, Pa., and all study protocols were approved by Merck West Point Institutional Animal Care and Use Committee (IACUC). Female Sprague-Dawley (SD) rats obtained from Charles River were used in these studies at an age of 4-6 weeks and with a body weight of 120-160 grams. Anti-inflammation agents were administrated using the dosing regimens listed in Table 1, 1 hr prior to tail vein injection of liposomal siRNA nanoparticles in PBS in a volume of 0.8 ml under normal pressure. At 3 hr post injection of liposomal siRNA, ˜0.2 ml blood was collected by retro-orbital bleed under anesthesia and processed as plasma for the assessment of cytokines. At 24 hr, blood was collected for evaluation of complete blood cell counts (CBC), coagulation parameters and serum chemistry by venipuncture under anesthesia followed by exsanguination, and tissues from liver, spleen and kidney were collected for determination of SSB and ApoB mRNA levels and TUNEL analysis. For visual examination of urine color, rats were housed in metabolic cages to collect urine over a course of 24 hours after injection of liposomal siRNA nanoparticles. Animals were examined 3 times a day for detection of lethality over a course of 96 hours.

[4] = tested on: LF01-SSB-induced toxicities; assay: LF01-SSB-induced toxicities in rats with or without inhibitor pretreatment; format: in vivo; conditions: for suppression of cytokine release, elevation of serum transaminases, thrombocytopenia or coagulopathy induced by LF01-SSB: pretreatment before LF01-SSB 3 mg/kg
Method: as §1, with “At 24 hr, blood was collected for evaluation of complete blood cell counts (CBC), coagulation parameters and serum chemistry by venipuncture under anesthesia followed by exsanguination, and tissues from liver, spleen and kidney were collected for determination of SSB and ApoB mRNA levels and TUNEL analysis.” left out
Analyses of rat blood samples. Cytokines in plasma were quantified using a microsphere bead-based, multiplexed assay, Milliplex™ RCYTO-80K-PMX23 (Millipore) which allows simultaneous quantification of 23 rat cytokines including IFNγ, IL-6, MCP-1 and TNFα. All CBC, coagulation and serum chemistry parameters were analyzed by Merck Laboratory of Animal Resources and the Safety Assessment Department at West Point, Pa. CBC was determined on whole blood placed in an EDTA-treated tube using an Advia 120 Hematology Analyzer (Siemens). Coagulation parameters in citrated plasma were assessed with a Behring Coagulation System (Siemens) and serum chemistry evaluation was conducted with an Advia 1800 Clinical Chemistry Analyzer (Siemens).
TUNEL (Terminal deoxynucleotidyl transferase-mediated dUTP-biotin Nick End Labeling). TUNEL staining in tissue sections was performed using a ‘TACS™ TdT-Blue Label in Situ Apoptosis Detection Kit’ (Trevigen). Briefly, 5 μm paraffin embedded sections of liver tissue were deparaffinized, fixed, labeled, and counterstained according to the manufacturer's recommendations. In Situ labeling procedure includes extension of 3′ ends with Biotin-dNTP (TdT Labeling Rxn), followed by additions of Strep-HRP and “TACS-Blue” Label or DAB for color development. TUNEL signal was quantified using the Arial system (Applied Imaging). Quantification of mRNA. qRT-PCR assays were used to quantify SSB and ApoB mRNA levels relative to the housekeeping gene Ppib in lysates prepared from tissues using kits from Applied Biosystems. The catalog numbers are Rn0057621_g1 for SSB, Rn01499054_m1 for ApoB and Rn03302274_m1 for Ppib.

N.S=C(S)N1CCCC1 [PDTC]
IC50 [1]: 20 nM | IC50 [2]: 400 nM | Rescue effect: Death, +inhibitor/−inhibitor [3]: 4/5 | Rescue effect: Red urine, +inhibitor/−inhibitor [3]: 3/5 | effect on LF01-SSB-induced coagulopathy (elongation of aPTT) ([4]; rats, pre-dosed 1 hr prior to LF01-SSB 3 mg/kg IV, 24 hr): no mitigation effect

C[S+]([O-])c1ccc(-c2nc(-c3ccncc3)c(-c3ccc(F)cc3)[nH]2)cc1 (stereo not shown) [SB-203580]
Rescue effect: Death, +inhibitor/−inhibitor [3]: 2/5 | Rescue effect: Red urine, +inhibitor/−inhibitor [3]: 2/5 | effect on LF01-SSB-induced coagulopathy (elongation of aPTT) ([4]; rat, in vivo): no mitigation effect | effect on LF01-siRNA induction of IL-6 ([4]; rats, plasma 3 hr post LF01-SSB dose): abrogated

N=C(N)NN [Aminoguanidine]
Rescue effect: Death, +inhibitor/−inhibitor [3]: 4/3 | Rescue effect: Red urine, +inhibitor/−inhibitor [3]: 2/3 | suppression of cytokine release, elevation of serum transaminases, thrombocytopenia or coagulopathy induced by LF01-SSB ([4]; rats): no appreciable suppression

Cc1ccc(-c2ncc(Cl)cc2-c2ccc(S(C)(=O)=O)cc2)cn1 [Etoricoxib]
Rescue effect: Death, +inhibitor/−inhibitor [3]: 4/3 | Rescue effect: Red urine, +inhibitor/−inhibitor [3]: 4/4 | suppression of cytokine release, elevation of serum transaminases, thrombocytopenia or coagulopathy induced by LF01-SSB ([4]; rats): no appreciable suppression

C[C@@H]1CCN(C(=O)CC#N)C[C@@H]1N(C)c1ncnc2[nH]ccc12 [CP-690550]
effect on LF01-SSB-induced lethality and visible hematuria ([3]; pre-dosed 1 hr before LF01-SSB 9 mpk IV, monitored 96 hr): prevented | Rescue effect: Death, +inhibitor/−inhibitor [3]: 0/4 | Rescue effect: Red urine, +inhibitor/−inhibitor [3]: 0/4 | effect on LF01-SSB toxic responses (cytokine induction, ALT and AST elevation, thrombocytopenia, elongation of aPTT, hepatic and splenic cell death) ([4]; rat, in vivo): suppression of toxic responses
